Reference: patent US20110144022A1, “Anti-Angiogenic Peptide” (ISTITUTO NAZIONALE PER LA RICERCA SUL CANCRO, priority 2004, published 2011)

How the values were obtained:
angiogenesis = assay: Matrigel sponge in vivo angiogenesis assay; set-up: species or system C57B1 mice; conditions: for effect of anti IL-12 antibody on the anti-angiogenic activity: neutralizing anti mouse IL-12 antibody added to the matrigel mixture
Method: the assay was performed in C57B1 mice as described (3).
To verify whether IL-12 was a mediator of AST function, a neutralizing anti mouse IL-12 antibody (Peproteck Inc. London) and respectively an irrelevant anti phage 13 antibody (5 prime, 3 prime Inc. Boulder, Co. 150 ng/ml) were added to the mixture.
After animal sacrifice, pellets were fixed in 4% PAF and paraffin embedded; […] sections were stained with hematoxylin-eosin standard procedure.
FIG. 1-b: matrigel in vivo angiogenesis assay with AST. Columns show means and standard error of groups comprising six animals each. KS-conditioned medium (KSCM) is the stimulus (control).
FIG. 1-c: matrigel in vivo angiogenesis assay with peptides.
A combination of peptides and anti IL-12 Ab was added to the samples containing KSCM as indicated.
FIG. 2, a-h: standard ematoxylin-eosin staining of the matrigel pellets relative to experiments in FIG. 1-c.

polymorphonucleate (PMN) = assay: Neutrophil (PMN) chemotaxis assay with IL-8 as chemoattractant; type: cell-based; conditions: CXCR1 and CXCR2-agonist and IL8 as chemoattractants
Method: The assay was conducted in 48 wells chambers (Costar Nucleopore, Milan, Italy) according to Falk (4). The lower compartment of each chamber was filled with 27 μL of chemoattractant (IL-8, 50 ng/ml) in RPMI 0.1% BSA (SFM). Serum-free medium (SFM) was used for spontaneous migration without stimulus. The upper compartment was filled with 50 μL of polymorphonucleate (PMN) suspension in SFM (3×10^6 cells/ml); each experimental point was performed in sextuplicate. Chambers were incubated at 37° C. in 5% CO2 in humidified atmosphere for 45 minutes. Filters were removed and the cells fixed in 100% ethanol and stained with toluidine blue. The migrated cells were quantified by scanning of the filter surface and by densitometry of blue staining by NIH Imaging Analysis Software.
FIG. 3: PMN chemotaxis. Densitometry of migrated cells. IL-8 represents the stimulus in each sample, to which either AST or relevant peptides are added.

KS-imm cells = assay: Xenotransplant of Kaposi sarcoma (KS-imm) tumor cells in nude mice; type: in vivo, CD1 nude mice; conditions: single administration three days before cell injection
Method: CD1 nude mice were injected in the flank with 5 million KS-imm cells and split in four groups: one was injected peri-tumorally with 2.5 μg AST (Calbiochem, La Jolla, Calif.) in 100 μl PBS-BSA, a control group was injected with vehicle alone, a third group with 2.5 mg of peptide SEQ ID NO:1 or a control peptide. Mice were sacrificed at day 31.

Substance: angiostatin
- effect of anti IL-12 antibody on the anti-angiogenic activity (angiogenesis): inhibited by and antibody anti IL-12

Substance: HNRTPENFPCKNL (listed as Homo sapiens) [peptide SEQ ID NO:1, 13mer from Kringle 3 of angiostatin, starting from position 307 of human plasminogen]
- activity in neutrophil chemotaxis assay (inhibition of migration) (polymorphonucleate (PMN)): significantly higher compared to other angiostatin peptides
- tumor growth (KS-imm cells): able to diminish tumor growth with respect to angiostatin
- anti-angiogenic activity in matrigel sponges (hemoglobin quantification) (angiogenesis; KS-conditioned medium (KSCM) as stimulus, compared with angiostatin): more active than angiostatin
- angiogenesis inhibition by hematoxylin-eosin stain of matrigel pellets (angiogenesis; histology of matrigel sponges): potent angiogensis inhibition
- local cellular infiltration in matrigel pellets (angiogenesis; histology of matrigel sponges): drastically reduced
- effect of anti IL-12 antibody on the anti-angiogenic activity (angiogenesis): inhibited by and antibody anti IL-12
